# Results: patent US11524966B1 (Valo Early Discovery, Inc., priority 2017, dated 2022)
# pIC50: −log10 of the molar value.
# Target: T1, USP25 (USP25-His6, Boston Biochem E-546) (Homo sapiens, UniProt Q9UHP3)
# T1 construct: His6; purchased Boston Biochem E-546
# T1 sequence (Q9UHP3 1-1055): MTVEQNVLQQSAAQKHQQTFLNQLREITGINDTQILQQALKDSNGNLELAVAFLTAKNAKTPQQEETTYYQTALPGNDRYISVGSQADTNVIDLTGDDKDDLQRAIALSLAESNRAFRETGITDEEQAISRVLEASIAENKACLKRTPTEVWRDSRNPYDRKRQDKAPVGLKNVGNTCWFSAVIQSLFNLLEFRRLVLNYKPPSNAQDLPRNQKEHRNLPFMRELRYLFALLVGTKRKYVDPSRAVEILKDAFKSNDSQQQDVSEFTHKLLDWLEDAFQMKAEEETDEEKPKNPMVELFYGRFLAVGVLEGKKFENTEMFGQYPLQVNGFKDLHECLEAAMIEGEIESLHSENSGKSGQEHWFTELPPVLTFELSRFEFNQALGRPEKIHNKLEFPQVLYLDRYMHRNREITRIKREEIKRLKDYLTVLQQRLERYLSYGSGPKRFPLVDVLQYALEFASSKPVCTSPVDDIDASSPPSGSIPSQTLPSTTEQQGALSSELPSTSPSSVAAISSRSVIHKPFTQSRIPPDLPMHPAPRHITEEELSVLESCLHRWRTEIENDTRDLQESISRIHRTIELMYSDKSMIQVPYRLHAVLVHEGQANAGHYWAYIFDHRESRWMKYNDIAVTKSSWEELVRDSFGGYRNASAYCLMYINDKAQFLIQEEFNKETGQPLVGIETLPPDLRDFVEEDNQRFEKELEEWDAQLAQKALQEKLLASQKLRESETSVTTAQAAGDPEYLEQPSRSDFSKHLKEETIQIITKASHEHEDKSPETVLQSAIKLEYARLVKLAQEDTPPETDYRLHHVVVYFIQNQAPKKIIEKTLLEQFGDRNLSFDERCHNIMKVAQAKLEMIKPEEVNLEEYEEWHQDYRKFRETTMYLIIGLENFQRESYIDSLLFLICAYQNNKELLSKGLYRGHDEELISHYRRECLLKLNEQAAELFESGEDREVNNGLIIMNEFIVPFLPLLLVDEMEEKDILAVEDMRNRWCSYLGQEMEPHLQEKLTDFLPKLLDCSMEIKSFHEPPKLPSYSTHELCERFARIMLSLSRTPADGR
# Experiment: Ubiquitin-Rhodamine 110 Assay for USP25 Activity, Example A-2
# Format: biochemical
# Settings: Ubiquitin-Rhodamine 110 assay, Example A-2; read-out: USP25 A-2 IC50 range
# How it was run: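 USP25-His6 (75 pM) was preincubated with compound (10-point, 3-fold series, 25 μM to 1.3 nM) for 30 min in 20 mM Tris-HCl pH 8.0, 3 mM BME, 0.03% BGG, 0.01% Triton X-100. Ub-Rh110 (25 nM, <<Km) was then added for 45 min at room temperature, citric acid-stopped, and fluorescence read at 485/535 nm.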
row,Compound,pIC50
1,"CO[C@@H]1CN(c2cc3c(c(F)c2F)C[C@@H](NC(=O)c2sc4nc(C)ccc4c2N)CO3)C[C@H]1N [Example 415, 3-amino-N-[(3R)-7-[(3R,4R)-3-amino-4-methoxypyrrolidin-1-yl]-5,6-difluoro-3,4-dihydro-2H-1-benzopyran-3-yl]-6-methylthieno[2,3-b]pyridine-2-carboxamide]",5.70 to 6.70
2,"CO[C@H]1CN(c2cc3c(c(F)c2F)C[C@@H](NC(=O)c2sc4nc(C)ccc4c2N)CO3)C[C@@H]1N [Example 416, 3-amino-N-[(3R)-7-[(3S,4S)-3-amino-4-methoxpyrrolidin-1-yl]-5,6-difluoro-3,4-dihydro-2H-1-benzopyran-3-yl]-6-methylthieno[2,3-b]pyridine-2-carboxamide]",5.70 to 6.70
3,"Cc1ccc2c(N)c(C(=O)N[C@H]3CCc4cc(N5CCNCC5)c(F)c(F)c4C3)sc2n1 [Example 417, 3-amino-N-[(2S)-7,8-difluoro-6-(piperazin-1-yl)-1,2,3,4-tetrahydronaphthalen-2-yl]-6-methylthieno[2,3-b]pyridine-2-carboxamide]",< 5.70
4,"Cc1ccc2c(N)c(C(=O)N[C@@H]3CCc4cc(N5CCNCC5)c(F)c(F)c4C3)sc2n1 [Example 418, 3-amino-N-[(2R)-7,8-difluoro-6-(piperazin-1-yl)-1,2,3,4-tetrahydronaphthalen-2-yl]-6-methylthieno[2,3-b]pyridine-2-carboxamide]",5.70 to 6.70
5,"Cc1cnc2c(N)c(C(=O)N[C@H]3CCc4cc(N5CC6CNCC(C5)O6)ccc4C3)sc2n1 [Example 448, N-((2S)-6-(9-oxa-3,7-diazabicyclo[3.3.1]nonan-3-yl)-1,2,3,4-tetrahydronaphthalen-2-yl)-7-amino-3-methylthieno[2,3-b]pyrazine-6-carboxamide]",5.70 to 6.70
6,"Cc1cnc2c(N)c(C(=O)N[C@@H]3CCc4cc(N5CC6CNCC(C5)O6)ccc4C3)sc2n1 [Example 450, N-((2R)-6-(9-oxa-3,7-diazabicyclo[3.3.1]nonan-3-yl)-1,2,3,4-tetrahydronaphthalen-2-yl)-7-amino-3-methylthieno[2,3-b]pyrazine-6-carboxamide]",< 5.70
7,"Cc1ccc2c(N)c(C(=O)N[C@@H]3CCc4cc(N5CC6CNCC(C5)O6)ccc4C3)sc2n1 [Example 451, N-((2R)-6-(9-oxa-3,7-diazabicyclo[3.3.1]nonan-3-yl)-1,2,3,4-tetrahydronaphthalen-2-yl)-3-amino-6-methylthieno[2,3-b]pyridine-2-carboxamide]",5.70 to 6.70
8,"Cc1cnc2c(N)c(C(=O)N[C@@H]3CCc4cc(N5CCCNCC5)ccc4C3)sc2n1 [Example 452, (R)-N-(6-(1,4-diazepan-1-yl)-1,2,3,4-tetrahydronaphthalen-2-yl)-7-amino-3-methylthieno[2,3-b]pyrazine-6-carboxamide]",< 5.70
9,"Cc1cnc2c(N)c(C(=O)N[C@H]3CCc4cc(N5CCCNCC5)ccc4C3)sc2n1 [Example 455, (S)-N-(6-(1,4-diazepan-1-yl)-1,2,3,4-tetrahydronaphthalen-2-yl)-7-amino-3-methylthieno[2,3-b]pyrazine-6-carboxamide]",5.70 to 6.70
10,"Cc1cnc2c(N)c(C(=O)N[C@H]3CCc4cc(N5CC6COCC(C5)N6)ccc4C3)sc2n1 [Example 456, N-((2S)-6-(3-oxa-7,9-diazabicyclo[3.3.1]nonan-7-yl)-1,2,3,4-tetrahydronaphthalen-2-yl)-7-amino-3-methylthieno[2,3-b]pyrazine-6-carboxamide]",< 5.70
11,"Cc1cccc2c(C(=O)N[C@H]3COc4cc(N5CCNCC5)ccc4C3)cnn12 [Example 458, (R)-7-methyl-N-(7-(piperazin-1-yl)chroman-3-yl)pyrazolo[1,5-a]pyridine-3-carboxamide]",5.70 to 6.70
12,"CC(=O)N1CCCc2cc(C(=O)N[C@H]3COc4cc(N5CCNCC5)ccc4C3)ccc21 [Example 459, (R)-1-acetyl-N-(7-(piperazin-1-yl)chroman-3-yl)-1,2,3,4-tetrahydroquinoline-6-carboxamide]",< 5.70
